The results in this text go back to patent publication US20210009624A1, “[18F] FMAU LABELING FOR PET IMAGING OF CANCER PATIENTS” (University of Southern California, priority 2018, published 2021).

Molecules are shown by their SMILES.

Series [1] in a line: Adverse reactions in Phase I patients with breast and prostate cancer. The series is classed as in vivo, human. As to conditions: all studied patients (Phase I, known breast and prostate cancer). The source says: (§1) In addition to animal models, we also studied the [^18F]FMAU obtained through our synthesis method using the labeling kit in patients (Phase I) with known breast and prostate cancer. […] In view of the promising clinical Phase I data of [^18F]FMAU, it is clear that FMAU is a promising candidate for PET imaging of tumor cell proliferation, and may ultimately complement the role of FLT or other cell proliferation markers currently under development.

Series [2] in a line: Circulating metabolites in human blood after injection of [18F]FMAU. It is filed as in vivo. As to conditions: human blood at 1 hour post-injection.
From the text: as §1

In series [3] the test system is primary breast tumor as well as metastatic disease. Briefly: PET imaging of [18F]FMAU in breast cancer patients (Phase I). It is filed as in vivo, human. As to conditions: FIG. 3.
From the text: as §1

`Cc1cn([C@@H]2O[C@H](CO)C(O)C2[18F])c(=O)[nH]c1=O` (stereo partly drawn) [[^18F]FMAU, 2′-deoxy-2′-[^18F]fluoro-5-methyl-1-beta-D-arabinofuranosyl-uracil]: the adverse reactions entry in series [1] was “No adverse reactions were observed”. Moreover, in series [2], the “circulating metabolites in human blood” value is recorded as “No major circulating metabolites were identified”. In addition, in series [3], the “primary breast tumor as well as metastatic disease uptake of [18F]FMAU (PET imaging)” value was “excellent”.
